Assay results from paper PMC11358582, “Discovery of a potential bladder cancer inhibitor CHNQD-01281 by regulating EGFR and promoting infiltration of cytotoxic T cells” (Marine Life Science & Technology, 2024).

Assays:
BxPC-3 cells = assay: MTT cell proliferation assay; type: cell-based, human
Method: (§1) Human tumor cell lines Eca-109, BEL-7402, BxPC-3, HCT-116, HT-29, T24, HCT-8, SGC-7901, DLD-1, TE-1, BT-549, MGC-803 and human hepatocyte cell line L-02 were cultured in Roswell Park Memorial Institute (RPMI) 1640. HuH-7 and SW-480 were cultured in Dulbecco’s modified Eagle’s medium (DMEM). J82, HepG2, Hela, U87 were cultured in Minimum Essential Medium (MEM). Murine bladder cancer cell line, MB49, was cultured in DMEM. The above-mentioned culture medium was provided by GIBCO (Grand Island, USA), contained 10% fetal bovine serum (PAN, Germany), 10 mg/mL of streptomycin, and 10 kU/mL penicillin (Beyotime, China).
(§2) Cells were seeded in 96-well plates and incubated with indicated concentrations of CHNQD-01281 for indicated periods. Next, medium was discarded and MTT (5 mg/mL) was added to each well. The cells were incubated at 37 °C for another 4 h. After that, supernatant was discarded, and DMSO was added and incubated at 37 °C for 15 min. Finally, absorbance was measured at 570 nm (Molecular Devices, USA).
(§3) To investigate whether CHNQD-01281 had selective inhibitory effect on cancer cell lines, a variety of human tumor cell lines were assayed by MTT, such as bladder cancer cell lines (J82 and T24), colorectal cancer cell lines (HCT-116, HT-29, HCT-8, DLD-1 and SW-480), cervical cancer cell line (Hela), esophageal cancer cell lines (TE-1 and Eca-109), breast cancer cell line (BT-549), gastric carcinoma cell lines (MGC-803 and SGC-7901), glioma cell line (U87), pancreatic carcinoma cell line (BxPC-3) and hepatocellular carcinoma cell lines (Hep G2, BEL-7402 and HuH-7) (Fig. 2A).

HCT-116 cells = assay: MTT cell proliferation assay; type: cell-based, human
Method: as §1, §2, §3

HCT-8 cells = assay: MTT cell proliferation assay; type: cell-based, human
Method: as §1, §2, §3

MGC-803 cells = assay: MTT cell proliferation assay; type: cell-based, human
Method: as §1, §2, §3

J82 cell line [1] = assay: Cell cycle analysis (Muse Cell Analyzer); type: cell-based, human
Method: (§4) T24 and J82 cell lines were seeded in 6-well plates (3 × 10^5 cells/well) and treated with different concentrations of CHNQD-01281 or DMSO. Cells were then harvested, washed with ice-cold PBS, and fixed in 70% cold ethanol overnight at − 20 °C. Fixed cells were then collected, washed, and stained with 200 μL of Muse™ cell cycle reagent for 30 min in the dark at room temperature. The cell cycle distribution was immediately analyzed by Muse Cell Analyzer (Millipore, Billerica, MA, USA).
(§5) The G1/S transition is a key checkpoint in the cell cycle that regulates DNA replication. As the cell cycle progresses, G1 phase arrest leads to apoptosis or repair mechanisms.

T24 cell line [2] = assay: Cell cycle analysis (Muse Cell Analyzer); type: cell-based, human
Method: as §4, §5

J82 cell line [3] = assay: Cell apoptosis analysis (Annexin V); type: cell-based, human; settings: J82, 0.32 µmol/L (control 4.15%)
Method: (§6) T24 and J82 cell lines were seeded in 6-well plates (3 × 10^5 cells/well) and treated with different concentrations of CHNQD-01281 or DMSO. Muse™ Annexin V and Dead Cell assay kit (Muse TM Cell Analyzer, Millipore (catalog no. MCH100105)) was used to determine the cell apoptosis by Muse cell analyzer (Millipore, Billerica, MA, USA).
(§7) Furthermore, treatment with CHNQD-01281 induced a dose-dependent increase in the total apoptosis of T24 and J82 cell lines. […] Meanwhile, the expression of apoptosis-related proteins cleaved PARP and cleaved caspase-3 were detected by Western blot. […] Therefore, CHNQD-01281 can induce DNA damage to arrest the cell cycle at the G0/G1 phase, affect the expression of DNA damage repair enzyme PARP, and finally induce apoptosis of bladder cancer cell lines.

T24 cell line [4] = assay: Cell apoptosis analysis (Annexin V); type: cell-based, human; settings: T24, 0.32 µmol/L (control 3.45%)
Method: as §6, §7

[5] = Single-dose safety profile, HE staining of main organs; type: in vivo, C57BL/6 mice; settings: single dose 100 mg/kg, i.p.
Method: To further investigate the safety profile of CHNQD-01281 in vivo, the HE staining of the heart, liver, spleen, lung, kidney and duodenum of C57 mice were analyzed after the single dose of CHNQD-01281 (100 mg/kg, i.p.). […] The distribution of CHNQD-01281 in tumor and main organs of C57BL/6 mice was then analyzed.
Fig. S14. Safety profile and tissue distribution of CHNQD-01281 in vivo. A Representative H&E staining images (scale bar: 50 μm) of main organs from vehicle and CHNQD-01281 (100 mg/kg, ip.) treated C57BL/6 mice (n = 3). B Bodyweight evaluation of mouse after treatment with vehicle and CHNQD-01281. C Tissue distribution of CHNQD-01281 in C57BL/6 mice (n = 3).

With `C[C@H]1CCC/C=C/[C@@H]2C[C@H](O)C[C@H]2[C@H](OC(=O)/C=C/c2cccnc2)/C=C/C(=O)O1` [CHNQD-01281, Brefeldin A 4-O-3-(pyridin-3-yl) acrylate] the IC90 (BxPC-3 cells; Homo sapiens, BxPC-3, MTT) was 350 nM, the IC50 (BxPC-3 cells; Homo sapiens, BxPC-3, MTT, 72 h) was 180 nM and the “SI (selectivity index)” value (BxPC-3 cells; L-02 versus BxPC-3) was 6.44. The IC90 (HCT-116 cells; Homo sapiens, HCT-116, MTT) was 640 nM, the IC50 (HCT-116 cells; Homo sapiens, HCT-116, MTT, 72 h) was 350 nM and the “SI (selectivity index)” value (HCT-116 cells; L-02 versus HCT-116) was 3.31. The IC90 (HCT-8 cells; Homo sapiens, HCT-8, MTT) was 440 nM, the IC50 (HCT-8 cells; Homo sapiens, HCT-8, MTT, 72 h) was 170 nM and the “SI (selectivity index)” value (HCT-8 cells; L-02 versus HCT-8) was 6.82. For the same compound, the IC90 (MGC-803 cells; Homo sapiens, MGC-803, MTT) was greater than 1000 nM, the IC50 (MGC-803 cells; Homo sapiens, MGC-803, MTT, 72 h) was 690 nM and the “SI (selectivity index)” value (MGC-803 cells; L-02 versus MGC-803) was 1.68. The “proportion of cells in S phase” value (J82 cell line [1]; J82, 0.04 µmol/L (control 27.5%)) was 26.0%, the G0/G1 cells (J82 cell line [1]; J82, 0.04 µmol/L (control 53.1%)) was 60.3% and the “proportion of cells in S phase” value (J82 cell line [1]; J82, 0.08 µmol/L (control 27.5%)) was 22.1%. For the same compound, the G0/G1 cells (J82 cell line [1]; J82, 0.08 µmol/L (control 53.1%)) was 66.3%, the “proportion of cells in S phase” value (J82 cell line [1]; J82, 0.16 µmol/L (control 27.5%)) was 18.2% and the G0/G1 cells (J82 cell line [1]; J82, 0.16 µmol/L (control 53.1%)) was 73.6%. The “proportion of cells in S phase” value (T24 cell line [2]; T24, 0.04 µmol/L (control 20.5%)) was 18.9%, the G0/G1 cells (T24 cell line [2]; T24, 0.04 µmol/L (control 61.4%)) was 65.0% and the “proportion of cells in S phase” value (T24 cell line [2]; T24, 0.08 µmol/L (control 20.5%)) was 13.5%. The G0/G1 cells (T24 cell line [2]; T24, 0.08 µmol/L (control 61.4%)) was 75.2%, the “proportion of cells in S phase” value (T24 cell line [2]; T24, 0.16 µmol/L (control 20.5%)) was 11.4% and the G0/G1 cells (T24 cell line [2]; T24, 0.16 µmol/L (control 61.4%)) was 80.6%. The total apoptotic cells (J82 cell line [3]) was 27.9%, the total apoptotic cells (T24 cell line [4]) was 27.8% and the “HE staining of heart, liver, spleen, lung, kidney and duodenum” value [5] was “no obvious abnormalities in cell and tissue morphology”.
